Results as given in ChEMBL document CHEMBL5291721, “A preclinical secondary pharmacology resource illuminates target-adverse drug reaction associations of marketed drugs” (Nat Commun, 2023).

What was measured:
[1] = molecular target: T1, Corticotropin-releasing factor receptor 2 (Homo sapiens, UniProt Q13324)
T1 sequence (Q13324 whole entry): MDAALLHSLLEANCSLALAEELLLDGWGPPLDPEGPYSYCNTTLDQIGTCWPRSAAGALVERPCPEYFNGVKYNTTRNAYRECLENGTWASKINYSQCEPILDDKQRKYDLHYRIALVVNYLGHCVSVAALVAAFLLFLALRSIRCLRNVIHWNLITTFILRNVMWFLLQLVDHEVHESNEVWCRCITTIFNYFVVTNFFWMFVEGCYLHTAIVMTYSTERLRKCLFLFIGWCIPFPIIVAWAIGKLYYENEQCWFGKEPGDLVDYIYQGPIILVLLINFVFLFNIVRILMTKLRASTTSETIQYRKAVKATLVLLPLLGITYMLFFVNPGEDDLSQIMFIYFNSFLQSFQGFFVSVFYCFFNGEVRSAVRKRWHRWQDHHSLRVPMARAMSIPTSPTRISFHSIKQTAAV

[2] = molecular target: T2, Neuropeptide Y receptor type 2 (Homo sapiens, UniProt P49146)
T2 sequence (P49146 whole entry): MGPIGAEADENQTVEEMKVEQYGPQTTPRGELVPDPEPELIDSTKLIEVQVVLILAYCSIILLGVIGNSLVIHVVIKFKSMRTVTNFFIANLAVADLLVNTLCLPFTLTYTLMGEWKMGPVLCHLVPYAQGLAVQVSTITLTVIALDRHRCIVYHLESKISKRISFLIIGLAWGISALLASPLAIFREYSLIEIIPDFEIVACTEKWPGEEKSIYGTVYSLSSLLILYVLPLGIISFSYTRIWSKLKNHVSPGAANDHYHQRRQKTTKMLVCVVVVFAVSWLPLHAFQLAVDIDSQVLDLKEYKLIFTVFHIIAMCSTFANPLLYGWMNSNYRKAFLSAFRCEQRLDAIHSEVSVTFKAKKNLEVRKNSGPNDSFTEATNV

D(4) dopamine receptor = molecular target: T3, D(4) dopamine receptor (Homo sapiens, UniProt P21917)
T3 sequence (P21917 whole entry): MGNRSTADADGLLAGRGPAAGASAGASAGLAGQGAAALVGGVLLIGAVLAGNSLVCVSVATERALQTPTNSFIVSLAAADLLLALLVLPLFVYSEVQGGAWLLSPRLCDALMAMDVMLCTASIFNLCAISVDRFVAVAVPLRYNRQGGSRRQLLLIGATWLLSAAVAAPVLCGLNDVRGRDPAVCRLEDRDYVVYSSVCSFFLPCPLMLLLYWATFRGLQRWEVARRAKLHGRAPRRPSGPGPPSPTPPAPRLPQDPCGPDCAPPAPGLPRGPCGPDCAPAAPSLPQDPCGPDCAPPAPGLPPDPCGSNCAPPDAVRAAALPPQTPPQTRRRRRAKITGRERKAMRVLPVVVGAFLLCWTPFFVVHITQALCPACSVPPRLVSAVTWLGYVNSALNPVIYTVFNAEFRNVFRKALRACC

[3] = molecular target: Beta-3 adrenergic receptor (Homo sapiens, UniProt P13945)
[4] = molecular target: 5-hydroxytryptamine receptor 6 (Homo sapiens, UniProt P50406)
[5] = molecular target: T4, Peroxisome proliferator-activated receptor gamma (Homo sapiens, UniProt P37231); assay type: functional
T4 sequence (P37231 whole entry): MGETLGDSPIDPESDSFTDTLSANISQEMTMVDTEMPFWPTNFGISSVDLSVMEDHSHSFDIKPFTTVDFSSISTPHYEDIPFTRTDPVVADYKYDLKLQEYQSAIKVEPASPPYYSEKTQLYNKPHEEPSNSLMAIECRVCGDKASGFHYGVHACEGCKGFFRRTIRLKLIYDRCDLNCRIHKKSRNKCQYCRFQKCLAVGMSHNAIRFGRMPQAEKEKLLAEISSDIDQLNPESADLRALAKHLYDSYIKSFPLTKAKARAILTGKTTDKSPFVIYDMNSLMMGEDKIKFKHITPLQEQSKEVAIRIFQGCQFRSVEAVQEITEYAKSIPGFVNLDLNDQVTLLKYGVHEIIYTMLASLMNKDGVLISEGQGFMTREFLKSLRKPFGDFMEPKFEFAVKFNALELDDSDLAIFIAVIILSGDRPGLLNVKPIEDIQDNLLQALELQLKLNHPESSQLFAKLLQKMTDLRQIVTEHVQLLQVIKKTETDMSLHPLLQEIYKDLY

Androgen receptor = molecular target: T5, Androgen receptor (Rattus norvegicus, UniProt P15207)
T5 sequence (P15207 whole entry): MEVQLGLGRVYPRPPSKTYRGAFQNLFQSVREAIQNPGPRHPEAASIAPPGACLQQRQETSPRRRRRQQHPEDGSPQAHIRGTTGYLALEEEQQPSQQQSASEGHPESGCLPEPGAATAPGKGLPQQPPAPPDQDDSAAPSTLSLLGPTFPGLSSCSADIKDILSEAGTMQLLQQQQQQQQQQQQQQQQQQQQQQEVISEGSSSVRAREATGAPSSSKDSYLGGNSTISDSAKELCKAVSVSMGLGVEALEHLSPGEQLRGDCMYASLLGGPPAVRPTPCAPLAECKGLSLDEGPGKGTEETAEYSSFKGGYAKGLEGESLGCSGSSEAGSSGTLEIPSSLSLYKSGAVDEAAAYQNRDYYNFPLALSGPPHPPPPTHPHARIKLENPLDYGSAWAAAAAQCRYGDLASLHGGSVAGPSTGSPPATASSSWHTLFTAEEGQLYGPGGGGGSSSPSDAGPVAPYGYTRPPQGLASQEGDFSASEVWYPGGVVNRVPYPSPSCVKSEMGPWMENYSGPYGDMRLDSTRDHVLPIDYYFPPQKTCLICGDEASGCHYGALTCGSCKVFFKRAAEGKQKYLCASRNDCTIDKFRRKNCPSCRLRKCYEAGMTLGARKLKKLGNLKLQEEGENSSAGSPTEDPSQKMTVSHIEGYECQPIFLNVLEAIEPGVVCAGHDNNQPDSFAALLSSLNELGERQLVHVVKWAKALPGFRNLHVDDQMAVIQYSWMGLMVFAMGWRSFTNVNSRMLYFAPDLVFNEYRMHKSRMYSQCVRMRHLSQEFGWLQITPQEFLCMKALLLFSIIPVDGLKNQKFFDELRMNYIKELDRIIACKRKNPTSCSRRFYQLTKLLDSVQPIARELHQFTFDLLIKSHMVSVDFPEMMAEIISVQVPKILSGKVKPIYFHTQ

[6] = molecular target: Beta-1 adrenergic receptor (Homo sapiens, UniProt P08588); assay type: functional, cell-based
Note: assay procedure not described here.

Beta-3 adrenergic receptor, sequence (P13945 whole entry): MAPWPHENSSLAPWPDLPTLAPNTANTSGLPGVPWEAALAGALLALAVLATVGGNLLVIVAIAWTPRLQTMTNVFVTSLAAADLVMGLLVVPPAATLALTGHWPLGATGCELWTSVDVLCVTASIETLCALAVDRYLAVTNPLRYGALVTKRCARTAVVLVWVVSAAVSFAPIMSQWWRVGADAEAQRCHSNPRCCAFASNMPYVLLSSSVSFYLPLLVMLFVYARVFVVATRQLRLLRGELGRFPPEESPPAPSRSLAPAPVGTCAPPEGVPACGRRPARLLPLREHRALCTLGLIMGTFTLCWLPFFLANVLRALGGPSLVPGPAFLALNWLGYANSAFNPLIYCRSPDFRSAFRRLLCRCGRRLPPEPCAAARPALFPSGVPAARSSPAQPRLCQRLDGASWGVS
Beta-1 adrenergic receptor, sequence (P08588 whole entry): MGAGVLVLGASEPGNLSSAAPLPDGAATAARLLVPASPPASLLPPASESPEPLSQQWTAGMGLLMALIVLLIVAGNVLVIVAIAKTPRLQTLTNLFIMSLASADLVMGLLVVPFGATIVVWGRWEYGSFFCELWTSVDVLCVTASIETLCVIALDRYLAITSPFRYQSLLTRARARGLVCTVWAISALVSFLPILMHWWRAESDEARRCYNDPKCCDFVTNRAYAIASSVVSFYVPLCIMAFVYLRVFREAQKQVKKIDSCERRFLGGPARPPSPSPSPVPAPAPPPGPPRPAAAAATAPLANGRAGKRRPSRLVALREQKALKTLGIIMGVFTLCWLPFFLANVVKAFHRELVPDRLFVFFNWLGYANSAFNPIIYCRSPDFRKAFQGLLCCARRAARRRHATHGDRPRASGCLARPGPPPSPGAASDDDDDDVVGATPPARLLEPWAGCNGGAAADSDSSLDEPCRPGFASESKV
5-hydroxytryptamine receptor 6, sequence (P50406 whole entry): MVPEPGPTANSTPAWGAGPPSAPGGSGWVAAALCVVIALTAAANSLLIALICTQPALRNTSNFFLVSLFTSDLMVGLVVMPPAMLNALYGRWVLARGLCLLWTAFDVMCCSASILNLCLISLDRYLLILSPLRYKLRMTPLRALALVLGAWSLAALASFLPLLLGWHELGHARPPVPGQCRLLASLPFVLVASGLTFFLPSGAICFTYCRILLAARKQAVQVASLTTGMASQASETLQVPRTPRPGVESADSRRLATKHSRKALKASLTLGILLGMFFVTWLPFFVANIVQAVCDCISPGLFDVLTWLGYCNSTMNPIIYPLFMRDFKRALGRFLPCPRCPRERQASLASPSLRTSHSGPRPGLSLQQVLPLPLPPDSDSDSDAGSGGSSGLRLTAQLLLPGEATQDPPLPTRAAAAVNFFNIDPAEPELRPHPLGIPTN

| Structure (SMILES) | AC50 [2] | AC50 (D(4) dopamine receptor) | AC50 [3] | AC50 (Androgen receptor) | further results |
| --- | --- | --- | --- | --- | --- |
| CNS(=O)(=O)Cc1ccc2[nH]cc(CCN(C)C)c2c1 | > 30 µM | > 10 µM | > 30 µM |  | AC50 [1]: > 30 µM; AC50 [4]: > 10 µM |
| CC(=O)O[C@H]1CC[C@@]2(C)C(=CC[C@@H]3[C@@H]2CC[C@]2(C)C(c4cccnc4)=CC[C@@H]32)C1 [ABIRATERONE ACETATE] |  |  |  |  | AC50 [5]: > 30 µM |
| NCC[C@H](O)C(=O)N[C@@H]1C[C@H](N)[C@@H](O[C@H]2O[C@H](CN)[C@@H](O)[C@H](O)[C@H]2O)[C@H](O)[C@H]1O[C@H]1O[C@H](CO)[C@@H](O)[C@H](N)[C@H]1O [AMIKACIN] |  |  |  | > 10 µM |  |
| C=CCC1(CC(C)C)C(=O)NC(=O)NC1=O [BUTALBITAL] |  |  |  | > 10 µM |  |
| CO/N=C(\C(=O)N[C@@H]1C(=O)N2C(C(=O)O)=C(CSc3nnnn3C)CS[C@H]12)c1csc(N)n1 [CEFMENOXIME] |  |  |  |  | AC50 [5]: > 30 µM |
| O=C(O)C1=C(CSc2nnnn2CS(=O)(=O)O)CS[C@@H]2[C@H](NC(=O)[C@H](O)c3ccccc3)C(=O)N12 [CEFONICID] |  |  |  | > 30 µM |  |
| CCN1CCN(C(=O)N[C@@H](C(=O)N[C@@H]2C(=O)N3C(C(=O)O)=C(CSc4nnnn4C)CS[C@H]23)c2ccc(O)cc2)C(=O)C1=O [CEFOPERAZONE] |  |  |  |  | AC50 [5]: > 30 µM |
| COc1ccc2c3c1O[C@H]1[C@@H](O)C=C[C@H]4[C@@H](C2)N(C)CC[C@@]341 [CODEINE] | > 30 µM | > 10 µM | > 30 µM |  | AC50 [1]: > 30 µM; AC50 [4]: > 10 µM |
| Cn1c(=O)c2c(ncn2CC2OCCO2)n(C)c1=O [DOXOFYLLINE] |  |  |  |  | AC50 [6]: > 30 µM |
| CCCCc1ncc(/C=C(\Cc2cccs2)C(=O)O)n1Cc1ccc(C(=O)O)cc1 [EPROSARTAN] | > 30 µM | > 10 µM | > 30 µM |  | AC50 [1]: > 30 µM; AC50 [4]: > 10 µM |
| CCc1c(Cl)c(O)c(Cl)c(O)c1C(=O)O[C@H]1[C@H](O)[C@H](OC)[C@H](OC/C2=C\C=C\C[C@H](O)/C(C)=C/[C@H](CC)[C@@H](O[C@@H]3OC(C)(C)[C@@H](OC(=O)C(C)C)[C@H](O)[C@@H]3O)/C(C)=C/C(C)=C/C[C@@H]([C@@H](C)O)OC2=O)O[C@@H]1C [FIDAXOMICIN] | > 30 µM | > 10 µM | > 30 µM | 25 µM | AC50 [1]: > 30 µM |
| COc1ccc(CCN(C)CCCC(C#N)(c2cc(OC)c(OC)c(OC)c2)C(C)C)cc1OC (centres undefined) [GALLOPAMIL] |  |  |  |  | AC50 [6]: > 30 µM |
| CC(C)C(=O)c1c(C(C)C)nn2ccccc12 [IBUDILAST] |  |  |  |  | AC50 [6]: > 30 µM |
| CC(C)Cn1cnc2c(N)nc3ccccc3c21 [IMIQUIMOD] |  |  |  | > 10 µM |  |
| CCC(C(=O)O)c1ccc(N2Cc3ccccc3C2=O)cc1 (centres undefined) [INDOBUFEN] |  |  |  |  | AC50 [6]: > 30 µM |
| CC(C)(C)c1cc(C(C)(C)C)c(NC(=O)c2c[nH]c3ccccc3c2=O)cc1O [IVACAFTOR] |  |  | 4.4 µM | > 30 µM |  |
| CC(C)OC(=O)CCC/C=C\C[C@@H]1[C@@H](CC[C@@H](O)CCc2ccccc2)[C@H](O)C[C@@H]1O [LATANOPROST] |  |  |  |  | AC50 [5]: > 30 µM |
| COC(=O)C1=C(C)NC(C)=C(C(=O)OC(C)(C)CN(C)CCC(c2ccccc2)c2ccccc2)C1c1cccc([N+](=O)[O-])c1 (centres undefined) [LERCANIDIPINE] |  |  |  | > 30 µM |  |
| CCC1(CC)C(=O)NCC(C)C1=O (centres undefined) [METHYPRYLON] |  |  |  |  | AC50 [5]: > 30 µM |
| CCOC(=O)[N-]c1cn(N2CCOCC2)n[o+]1 [MOLSIDOMINE] |  |  |  |  | AC50 [6]: > 30 µM |
| CCCc1nc(C(C)(C)O)c(C(=O)OCc2oc(=O)oc2C)n1Cc1ccc(-c2ccccc2-c2nnn[nH]2)cc1 [OLMESARTAN MEDOXOMIL] | > 50 µM | > 10 µM | > 30 µM |  | AC50 [1]: > 30 µM; AC50 [4]: > 10 µM |
| N#Cc1ccc([C@H]2CCc3cncn32)c(F)c1 [OSILODROSTAT] | > 10 µM | > 10 µM |  |  | AC50 [4]: > 10 µM |
| O=C(O)C[C@H](O)C[C@H](O)/C=C/c1c(C2CC2)nc2ccccc2c1-c1ccc(F)cc1 [PITAVASTATIN] |  |  |  | > 10 µM |  |
| CCCN(CCC)C(=O)C(CCC(=O)O)NC(=O)c1ccccc1 (centres undefined) [PROGLUMIDE] | > 30 µM | > 10 µM | > 30 µM |  | AC50 [1]: > 30 µM |
| COC(=O)[C@H]1[C@H]2C[C@@H]3c4[nH]c5cc(OC)ccc5c4CCN3C[C@H]2C[C@@H](OC(=O)/C=C/c2cc(OC)c(OC)c(OC)c2)[C@@H]1OC [RESCINNAMINE] |  |  |  | > 10 µM |  |
| CN1C(=O)C(O)N=C(c2ccccc2)c2cc(Cl)ccc21 (centres undefined) [TEMAZEPAM] | > 30 µM | > 10 µM | > 30 µM |  | AC50 [1]: > 30 µM |
| CCN(CC)C(=O)N[C@H]1C[C@@H]2c3cccc4[nH]cc(c34)C[C@H]2N(C)C1 [TERGURIDE] |  |  |  |  | AC50 [5]: > 30 µM |
| C/C(O)=C(\C#N)C(=O)Nc1ccc(C(F)(F)F)cc1 [TERIFLUNOMIDE] |  |  |  |  | AC50 [5]: 25 µM |
| CN1CCN(CC/C=C2/c3ccccc3Sc3ccc(S(=O)(=O)N(C)C)cc32)CC1 [THIOTHIXENE] | > 30 µM | 0.78 µM | > 30 µM | > 30 µM | AC50 [1]: > 30 µM; AC50 [4]: 0.455 µM |
| COc1cc2c(N)nc(N3CCN(C(=O)OCC(C)(C)O)CC3)nc2c(OC)c1OC [TRIMAZOSIN] |  |  |  |  | AC50 [6]: > 30 µM |
